Test results reported in PubChem BioAssay (NCI).
“And” between values parts separate entries of the source, which are not always exact repeats. Identical values can stand only once.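 Exposure lasted 48 hours, with cells grown in 96-well plates and compounds tested at five concentrations. GI50 is the concentration that inhibits growth by half. TGI: total growth inhibition.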

System: MDA-MB-468 breast
Experiment: NCI tumour cell line growth inhibition, 48 h

Point of comparison: `CSc1nc2c(c(=O)n1C)CN(C1CCCCC1)C(=O)C(c1ccccc1)N2` (centres undefined), GI50 52.2 µM. Against it:
- CC[C@@H](C)/C=C(C)/C=C/C(=O)c1c(O)c(-c2ccc(O)cc2)cn(O)c1=O — 310-fold lower, 0.167 µM
- CC(=O)C1=C(O)C=C2Oc3c(C(=O)/C=C/c4cc(Cl)cc(Cl)c4)c(O)c(C)c(O)c3[C@]2(C)C1=O — 99-fold lower, 0.529 µM
- CCNC(=O)Oc1ccc(/C(=C(/C)Cc2ccc(OC)cc2)c2ccc(OCCN(CC)CC)cc2)cc1 — 32-fold lower, 1.63 µM
- O=[N+]([O-])c1cc([N+](=O)[O-])c(Nn2c3ccccc3c3ccccc32)c([N+](=O)[O-])c1 — 190-fold lower, 0.274 µM
- Cc1cc(C)c(-c2c(N)cc(Br)cc2Br)c(N)c1 — 23-fold lower, 2.24 µM
- CCCCCCCC/C=C/CCCCCCCC1=NC(C)(C)CN1CCO — 31-fold lower, 1.67 µM
- CC(=O)[C@H]1CCC/C=C/[C@@H]2C[C@H](O)C[C@H]2[C@H](O)/C=C/C(=O)O1 — 330-fold lower, 0.159 µM
- Clc1ccccc1-c1nnc2c(Cc3ccccc3)nc3ccccc3n12 — 10-fold lower, 5.24 µM
- N#Cc1cnc(Nc2cc(NC[C@H]3CNCCO3)c(C(F)(F)F)cn2)cn1 — 3.2-fold lower, 16.4 µM
- Cc1cc(-c2cc(O)ccc2Cl)cc2nnc(Nc3ccc(OCCN4CCCC4)cc3)nc12 — 90-fold lower, 0.583 µM
- Cn1cc(-c2cnn3c(N)c(Br)c(C4CCCNC4)nc23)cn1 (centres undefined) — 4.7-fold lower, 11.1 µM
- Cc1cc2c(-c3nc4ccccn4c3N)c(O)c(O)cc2c(O)c1-c1c(C)cc2c(-c3nc4ccccn4c3N)c(O)c(O)cc2c1O — 97-fold lower, 0.538 µM
- O=S(=O)(Nc1ccc(I)c(Cl)c1)c1ccc(-c2cnc(C3CC3)o2)cc1 — 170-fold lower, 0.314 µM
- c1ccc(CNCCN(CCNCc2ccccn2)Cc2ccc3ccccc3c2)nc1 — 24-fold lower, 2.18 µM
- COc1ccc([C@@]23Oc4cc(OC)cc(OC)c4[C@]2(O)[C@H](O)[C@H](C(N)=O)[C@H]3c2ccccc2)cc1 — lower, < 0.01 µM
- CN1CCN(Cc2ccc(NC(=O)c3cncc(C#Cc4cnc(N)c5cccnc45)c3)cc2C(F)(F)F)CC1 — 75-fold lower, 0.698 µM
- Cc1cc(Nc2nc(N[C@@H](C)c3ncc(F)cn3)ncc2Cl)n[nH]1 — 2.9-fold lower, 18.2 µM
- Cc1cc(Nc2cc(N3CCN(C)CC3)nc(/C=C/c3ccccc3)n2)n[nH]1 — 88-fold lower, 0.59 µM
- CCN(Cc1cccc(Cl)c1)c1ccc(CO)c(Cl)c1 — 2100-fold lower, 0.025 µM
- CN1CCN(C(=O)COc2ccc(/C=C3\CC4C5CC=C6CC(Cl)CCC6(C)C5CCC4(C)C3=O)cc2)CC1 (centres undefined) — 8.7-fold lower, 6.03 µM
- CCOc1ccn(-c2ccc(F)cc2)c(=O)c1C(=O)Nc1ccc(Oc2ccnc(N)c2Cl)c(F)c1 — 9.2-fold lower, 5.7 µM
- CC(C)COc1nc2c(c(=O)n(C)c(=O)n2C)n1C — higher, > 100 µM
- C#CCN(c1ccc(C(=O)N[C@@H](CCC(=O)N[C@H](CCC(=O)O)C(=O)O)C(=O)O)cc1)C1CCc2cc3nc(CO)[nH]c(=O)c3cc21 (some centres undefined) — not separable, > 23.1 µM
- CO[C@H]1CC(O[C@@H]2/C(C)=C/C[C@@H]3C[C@@H](C[C@]4(CC[C@H](C)[C@@H](C5CCCCC5)O4)O3)OC(=O)[C@@H]3C=C(C)/C(=N/O)[C@H]4OC/C(=C\C=C\[C@@H]2C)[C@]43O)O[C@@H](C)C1O (some centres undefined) — 66-fold lower, 0.793 µM
- COc1cc(C2c3cc4c(cc3C(OC(=O)C[n+]3ccccc3)C3COC(=O)C23)OCO4)cc(OC)c1OC (centres undefined) — 2200-fold lower, 0.0242 µM
- CCN(CC)CCCC(C)N/C(=C1\C(=O)NC(=O)\C1=C(/NC(C)CCCN(CC)CC)c1cccc(OC)c1)c1cccc(OC)c1 (centres undefined) — 69-fold lower, 0.762 µM

Point of comparison: `Cc1cc2c(-c3nc4ccccn4c3N)c(O)c(O)cc2c(O)c1-c1c(C)cc2c(-c3nc4ccccn4c3N)c(O)c(O)cc2c1O`, TGI 3.52 µM. Against it:
- CC[C@@H](C)/C=C(C)/C=C/C(=O)c1c(O)c(-c2ccc(O)cc2)cn(O)c1=O — 5.6-fold lower, 0.624 µM
- CC(=O)C1=C(O)C=C2Oc3c(C(=O)/C=C/c4cc(Cl)cc(Cl)c4)c(O)c(C)c(O)c3[C@]2(C)C1=O — 2.6-fold lower, 1.34 µM
- CCNC(=O)Oc1ccc(/C(=C(/C)Cc2ccc(OC)cc2)c2ccc(OCCN(CC)CC)cc2)cc1 — within 1.5-fold, 3.46 µM
- O=[N+]([O-])c1cc([N+](=O)[O-])c(Nn2c3ccccc3c3ccccc32)c([N+](=O)[O-])c1 — 4.5-fold lower, 0.782 µM
- Cc1cc(C)c(-c2c(N)cc(Br)cc2Br)c(N)c1 — 1.6-fold higher, 5.76 µM
- CCCCCCCC/C=C/CCCCCCCC1=NC(C)(C)CN1CCO — within 1.5-fold, 3.21 µM
- CC(=O)[C@H]1CCC/C=C/[C@@H]2C[C@H](O)C[C@H]2[C@H](O)/C=C/C(=O)O1 — 5.1-fold lower, 0.687 µM
- Clc1ccccc1-c1nnc2c(Cc3ccccc3)nc3ccccc3n12 — higher, > 100 µM
- N#Cc1cnc(Nc2cc(NC[C@H]3CNCCO3)c(C(F)(F)F)cn2)cn1 — 11-fold higher, 37.4 µM
- Cc1cc(-c2cc(O)ccc2Cl)cc2nnc(Nc3ccc(OCCN4CCCC4)cc3)nc12 — 1.7-fold lower, 2.04 µM
- Cn1cc(-c2cnn3c(N)c(Br)c(C4CCCNC4)nc23)cn1 (centres undefined) — 13-fold higher, 44.1 µM
- COc1cc(C(=O)c2cnc(-c3cccc4[nH]ccc34)[nH]2)cc(OC)c1OC — 25-fold higher, 88.7 µM
- O=S(=O)(Nc1ccc(I)c(Cl)c1)c1ccc(-c2cnc(C3CC3)o2)cc1 — within 1.5-fold, 2.65 µM
- c1ccc(CNCCN(CCNCc2ccccn2)Cc2ccc3ccccc3c2)nc1 — within 1.5-fold, 4.92 µM
- COc1ccc([C@@]23Oc4cc(OC)cc(OC)c4[C@]2(O)[C@H](O)[C@H](C(N)=O)[C@H]3c2ccccc2)cc1 — 77-fold lower, 0.0458 µM
- CN1CCN(Cc2ccc(NC(=O)c3cncc(C#Cc4cnc(N)c5cccnc45)c3)cc2C(F)(F)F)CC1 — higher, > 50 µM
- Cc1cc(Nc2nc(N[C@@H](C)c3ncc(F)cn3)ncc2Cl)n[nH]1 — 15-fold higher, 52.1 µM
- Cc1cc(Nc2cc(N3CCN(C)CC3)nc(/C=C/c3ccccc3)n2)n[nH]1 — within 1.5-fold, 2.44 µM
- CCN(Cc1cccc(Cl)c1)c1ccc(CO)c(Cl)c1 — 43-fold lower, 0.0817 µM
- CN1CCN(C(=O)COc2ccc(/C=C3\CC4C5CC=C6CC(Cl)CCC6(C)C5CCC4(C)C3=O)cc2)CC1 (centres undefined) — higher, > 100 µM
- CCOc1ccn(-c2ccc(F)cc2)c(=O)c1C(=O)Nc1ccc(Oc2ccnc(N)c2Cl)c(F)c1 — 9.9-fold higher, 34.8 µM
- CC(C)COc1nc2c(c(=O)n(C)c(=O)n2C)n1C — higher, > 100 µM
- C#CCN(c1ccc(C(=O)N[C@@H](CCC(=O)N[C@H](CCC(=O)O)C(=O)O)C(=O)O)cc1)C1CCc2cc3nc(CO)[nH]c(=O)c3cc21 (some centres undefined) — higher, > 100 µM
- CSc1nc2c(c(=O)n1C)CN(C1CCCCC1)C(=O)C(c1ccccc1)N2 (centres undefined) — higher, > 100 µM
- CO[C@H]1CC(O[C@@H]2/C(C)=C/C[C@@H]3C[C@@H](C[C@]4(CC[C@H](C)[C@@H](C5CCCCC5)O4)O3)OC(=O)[C@@H]3C=C(C)/C(=N/O)[C@H]4OC/C(=C\C=C\[C@@H]2C)[C@]43O)O[C@@H](C)C1O (some centres undefined) — 2-fold lower, 1.76 µM
- COc1cc(C2c3cc4c(cc3C(OC(=O)C[n+]3ccccc3)C3COC(=O)C23)OCO4)cc(OC)c1OC (centres undefined) — 45-fold lower, 0.0777 µM
- CCN(CC)CCCC(C)N/C(=C1\C(=O)NC(=O)\C1=C(/NC(C)CCCN(CC)CC)c1cccc(OC)c1)c1cccc(OC)c1 (centres undefined) — 2-fold lower, 1.75 µM

`CN1C(=O)[C@]23SSC1(C)C(=O)N2[C@H]1Nc2ccccc2C1([C@@]12c4ccccc4N[C@@H]1N1C(=O)C4(C)SS[C@]1(C(=O)N4C)[C@H]2O)[C@@H]3O` (some centres undefined) was tested, and the GI50 was 0.0351 µM and 0.115 µM.
With `CC(=O)c1cc(C(=O)c2ccc3c(c2)Sc2ccccc2N3)n2ccccc12` the GI50 was 0.00256 µM and 0.00332 µM.
In the case of `COc1cc(C(=O)c2cnc(-c3cccc4[nH]ccc34)[nH]2)cc(OC)c1OC`, the GI50 is reported as 0.0646 µM and < 0.01 µM.

In the case of `CN1C(=O)[C@]23SSC1(C)C(=O)N2[C@H]1Nc2ccccc2C1([C@@]12c4ccccc4N[C@@H]1N1C(=O)C4(C)SS[C@]1(C(=O)N4C)[C@H]2O)[C@@H]3O` (some centres undefined), the TGI is reported as 0.103 µM and 0.322 µM.
